In ChEMBL document CHEMBL1671617, “Correlation of antimicrobial resistance with beta-lactamases, the OmpA-like porin, and efflux pumps in clinical isolates of Acinetobacter baumannii endemic to New York City” (2008):

Experiments:
Format in all cases: functional
[1] = tested on: Acinetobacter baumannii; assay: Antimicrobial activity against ISAba1 linked with the blaOXA-51-type beta-lactamase harboring Acinetobacter baumannii zeta clonal group isolate 19 expressing ampC, ompA, adeB, adeM, aacC2 by Etest method
[2] = tested on: Acinetobacter baumannii; assay: Antimicrobial activity against ISAba1 linked with the blaOXA-51-type beta-lactamase harboring Acinetobacter baumannii alpha clonal group isolate 7 expressing ampC, ompA, adeB, adeM, blaSHV-5 by Etest method
[3] = tested on: Acinetobacter baumannii; assay: Antimicrobial activity against ISAba1 linked with the blaOXA-51-type beta-lactamase harboring Acinetobacter baumannii zeta clonal group isolate 20 expressing ampC, ompA, adeB, adeM, aacC2 by Etest method
[4] = tested on: Acinetobacter baumannii; assay: Antimicrobial activity against ISAba1 linked with the blaOXA-51-type beta-lactamase harboring Acinetobacter baumannii zeta clonal group isolate 25 expressing ampC, ompA, adeB, adeM, aadA1, aacA4, aacC2, blaSHV-5 by Etest method
[5] = tested on: Acinetobacter baumannii; assay: Antimicrobial activity against ISAba1 linked with the blaOXA-51-type beta-lactamase harboring Acinetobacter baumannii beta clonal group isolate 18 expressing ompA, adeB, adeM, aacA4, blaSHV-5 by Etest method
[6] = tested on: Acinetobacter baumannii; assay: Antimicrobial activity against Acinetobacter baumannii unique clonal group isolate 37 expressing ampC, ompA, adeB, adeM by Etest method
[7] = tested on: Acinetobacter baumannii; assay: Antimicrobial activity against ISAba1 linked with the blaOXA-51-type beta-lactamase harboring Acinetobacter baumannii alpha clonal group isolate 8 expressing ampC, ompA, adeB, adeM, aacC1, aadA1 by Etest method
[8] = tested on: Acinetobacter baumannii; assay: Antimicrobial activity against ISAba1 linked with the blaOXA-51-type beta-lactamase harboring Acinetobacter baumannii alpha clonal group isolate 1 expressing ampC, ompA, adeB, adeM by Etest method
[9] = tested on: Acinetobacter baumannii; assay: Antimicrobial activity against Acinetobacter baumannii eta clonal group isolate 35 expressing ampC, ompA, adeB, adeM by Etest method
[10] = tested on: Acinetobacter baumannii; assay: Antimicrobial activity against Acinetobacter baumannii nu clonal group isolate 34 expressing ampC, ompA, adeB, adeM by Etest method
[11] = tested on: Acinetobacter baumannii; assay: Antimicrobial activity against ISAba1 linked with the blaOXA-51-type beta-lactamase harboring Acinetobacter baumannii zeta clonal group isolate 21 expressing ampC, ompA, adeB, adeM, aacC2, blaSHV-5 by Etest method
[12] = tested on: Acinetobacter baumannii; assay: Antimicrobial activity against ISAba1 linked with the blaOXA-51-type beta-lactamase harboring Acinetobacter baumannii lambda clonal group isolate 28 expressing ampC, ompA, adeM, aadB, aadA1 by Etest method
[13] = tested on: Acinetobacter baumannii; assay: Antimicrobial activity against ISAba1 linked with the blaOXA-51-type beta-lactamase harboring Acinetobacter baumannii beta clonal group isolate 12 expressing ompA, adeB, adeM, aacA4, aacC2, blaSHV-5 by Etest method
[14] = tested on: Acinetobacter baumannii; assay: Antimicrobial activity against Acinetobacter baumannii lambda clonal group isolate 27 expressing ampC, ompA, adeB, adeM, aadB, aadA1 by Etest method
[15] = tested on: Acinetobacter baumannii; assay: Antimicrobial activity against ISAba1 linked with the blaOXA-51-type beta-lactamase harboring Acinetobacter baumannii beta clonal group isolate 15 expressing ompA, adeB, adeM, aacA4, blaSHV-5 by Etest method
[16] = tested on: Acinetobacter baumannii; assay: Antimicrobial activity against ISAba1 linked with the blaOXA-51-type beta-lactamase harboring Acinetobacter baumannii lambda clonal group isolate 29 expressing ampC, ompA, adeM, aadB, aadA1 by Etest method
[17] = tested on: Acinetobacter baumannii; assay: Antimicrobial activity against ISAba1 linked with the blaOXA-51-type beta-lactamase harboring Acinetobacter baumannii beta clonal group isolate 14 expressing ompA, adeB, adeM, aacA4, blaSHV-5 by Etest method
[18] = tested on: Acinetobacter baumannii; assay: Antimicrobial activity against ISAba1 linked with the blaOXA-51-type beta-lactamase harboring Acinetobacter baumannii beta clonal group isolate 9 expressing ampC, ompA, adeB, adeM by Etest method
[19] = tested on: Acinetobacter baumannii; assay: Antimicrobial activity against ISAba1 linked with the blaOXA-51-type beta-lactamase harboring Acinetobacter baumannii zeta clonal group isolate 22 expressing ampC, ompA, adeB, adeM, aadA1, aacA4, aacC2, blaSHV-5 by Etest method
[20] = tested on: Acinetobacter baumannii; assay: Antimicrobial activity against Acinetobacter baumannii nu clonal group isolate 32 expressing ampC, ompA, adeB, adeM, aadB, aadA2 by Etest method
[21] = tested on: Acinetobacter baumannii; assay: Antimicrobial activity against ISAba1 linked with the blaOXA-51-type beta-lactamase harboring Acinetobacter baumannii beta clonal group isolate 17 expressing ompA, adeB, adeM, aacA4, blaSHV-5 by Etest method
[22] = tested on: Acinetobacter baumannii; assay: Antimicrobial activity against Acinetobacter baumannii alpha clonal group isolate 2 expressing ampC, ompA, adeB, adeM, aacC1, aadA1 by Etest method
[23] = tested on: Acinetobacter baumannii; assay: Antimicrobial activity against Acinetobacter baumannii unique clonal group isolate 38 expressing ampC, ompA, adeB, adeM by Etest method
[24] = tested on: Acinetobacter baumannii; assay: Antimicrobial activity against ISAba1 linked with the blaOXA-51-type beta-lactamase harboring Acinetobacter baumannii beta clonal group isolate 13 expressing ompA, adeB, adeM, aacA4, blaSHV-5 by Etest method
[25] = tested on: Acinetobacter baumannii; assay: Antimicrobial activity against Acinetobacter baumannii nu clonal group isolate 31 expressing ampC, ompA, adeB, adeM, aadB, aadA2 by Etest method
[26] = tested on: Acinetobacter baumannii; assay: Antimicrobial activity against ISAba1 linked with the blaOXA-51-type beta-lactamase harboring Acinetobacter baumannii beta clonal group isolate 11 expressing ompA, adeB, adeM, blaSHV-5 by Etest method
[27] = tested on: Acinetobacter baumannii; assay: Antimicrobial activity against Acinetobacter baumannii alpha clonal group isolate 5 expressing ampC, ompA, adeB, adeM, aacC1, aadA1 by Etest method
[28] = tested on: Acinetobacter baumannii; assay: Antimicrobial activity against ISAba1 linked with the blaOXA-51-type beta-lactamase harboring Acinetobacter baumannii zeta clonal group isolate 26 expressing ampC, ompA, adeB, adeM, aadA1, aacA4, aacC2, blaSHV-5 by Etest method
[29] = tested on: Acinetobacter baumannii; assay: Antimicrobial activity against Acinetobacter baumannii eta clonal group isolate 36 expressing ampC, ompA, adeB, adeM by Etest method
[30] = tested on: Acinetobacter baumannii; assay: Antimicrobial activity against Acinetobacter baumannii nu clonal group isolate 33 expressing ampC, ompA, adeB, adeM by Etest method
[31] = tested on: Acinetobacter baumannii; assay: Antimicrobial activity against Acinetobacter baumannii alpha clonal group isolate 4 expressing ampC, ompA, adeB, adeM, aacC1, aadA1 by Etest method
[32] = tested on: Acinetobacter baumannii; assay: Antimicrobial activity against ISAba1 linked with the blaOXA-51-type beta-lactamase harboring Acinetobacter baumannii beta clonal group isolate 10 expressing ompA, adeB, adeM, aacA4, blaSHV-5 by Etest method
[33] = tested on: Acinetobacter baumannii; assay: Antimicrobial activity against ISAba1 linked with the blaOXA-51-type beta-lactamase harboring Acinetobacter baumannii lambda clonal group isolate 30 expressing ampC, ompA, adeB, adeM, aadB, aadA1 by Etest method
[34] = tested on: Acinetobacter baumannii; assay: Antimicrobial activity against ISAba1 linked with the blaOXA-51-type beta-lactamase harboring Acinetobacter baumannii alpha clonal group isolate 6 expressing ampC, ompA, adeB, adeM, aacC1, aadA1 by Etest method
[35] = tested on: Acinetobacter baumannii; assay: Antimicrobial activity against ISAba1 linked with the blaOXA-51-type beta-lactamase harboring Acinetobacter baumannii zeta clonal group isolate 23 expressing ampC, ompA, adeB, adeM, aadA1, aacA4, aacC2, aphA6 by Etest method
[36] = tested on: Acinetobacter baumannii; assay: Antimicrobial activity against Acinetobacter baumannii unique clonal group isolate 39 expressing ampC, ompA, adeM by Etest method
[37] = tested on: Acinetobacter baumannii; assay: Antimicrobial activity against ISAba1 linked with the blaOXA-51-type beta-lactamase harboring Acinetobacter baumannii zeta clonal group isolate 24 expressing ampC, ompA, adeB, adeM, aadA1, aacA4, aacC2, blaSHV-5 by Etest method
[38] = tested on: Acinetobacter baumannii; assay: Antimicrobial activity against ISAba1 linked with the blaOXA-51-type beta-lactamase harboring Acinetobacter baumannii unique clonal group isolate 40 expressing ampC, ompA, adeB, adeM, aadA1, aacA4, aacC2, blaSHV-5 by Etest method
[39] = tested on: Acinetobacter baumannii; assay: Antimicrobial activity against Acinetobacter baumannii alpha clonal group isolate 3 expressing ampC, ompA, adeB, adeM, aacC1, aadA1 by Etest method
[40] = tested on: Acinetobacter baumannii; assay: Antimicrobial activity against ISAba1 linked with the blaOXA-51-type beta-lactamase harboring Acinetobacter baumannii beta clonal group isolate 16 expressing ompA, adeB, adeM, aacA4, blaSHV-5 by Etest method

Measured: MIC

CN(C)c1cc(NC(=O)CNC(C)(C)C)c(O)c2c1C[C@H]1C[C@H]3[C@H](N(C)C)C(O)=C(C(N)=O)C(=O)[C@@]3(O)C(O)=C1C2=O [TIGECYCLINE]
0.75 µg/mL: [1] | [2] | [3] | [34] | [38]
2 µg/mL: [7] | [19] | [33]
3 µg/mL: [5] | [18]
0.19 µg/mL: [12] | [14] | [16]
0.09 µg/mL: [23]
0.5 µg/mL: [10] | [15] | [17] | [20] | [21] | [24] | [25] | [30] | [40]
0.25 µg/mL: [6] | [9] | [29] | [36]
1.5 µg/mL: [11] | [35]
1 µg/mL: all other assays above

GENTAMICIN
0.25 µg/mL: [23]
4 µg/mL: [32]
1.5 µg/mL: [14]
1 µg/mL: [8]
12 µg/mL: [22] | [27] | [31] | [39]
2 µg/mL: [2] | [10] | [26] | [30]
8 µg/mL: [15] | [17] | [21] | [24] | [34] | [40]
16 µg/mL: [12] | [16]
0.38 µg/mL: [36]
6 µg/mL: [6] | [18]
64 µg/mL: [5]
192 µg/mL: [7]
3 µg/mL: [9] | [29]
> 256 µg/mL: all other assays above
